Test results from US12551464B2, “N-(3-amino-3-oxopropyl)-2-[(1-methyl-4-nitro-1H-imidazol-5-yl)thio]benzamide and its use for treating HIV infection” (The United States of America, as represented by the …, priority 2019, dated 2026).
pEC50: −log10 of the molar value. Several values for one entry are separate records, joined by “and”; a condition that tells them apart may be missing. Identical values can stand only once. Like-named read-outs stand apart in the source and are kept apart here.

Tests used:
[1] = Toxicity of metabolite, method not described
[2] = Pharmacokinetics in cynomolgus macaques; assay type: in vivo; conditions: 300 mg/kg p.o. oral gavage
Method: The compound of formula (I) was administered to cynomolgus macaques at a dose of 300 mg/kg p.o. via oral gavage.

[3] = tested on: CXCR4 Tropic Clade B HIV-192HT599; assay: Anti-HIV activity in human PBMCs, reverse transcriptase in culture supernatants; assay type: cell-based; conditions: PBMC, 7 days in culture
Method: (§1) PHA-P stimulated PBMCs from three donors were pooled together and resuspended in fresh tissue culture medium at 1×10^6 cells/mL and plated in the interior wells of a 96 well round bottom microplate at 50 μL/well. A 100 μL volume of 9 concentrations of the compound serially diluted were transferred to the round bottom 96 well plate containing the cells in triplicate. 50 μL of HIV-1 at a predetermined dilution was added. Each plate contained cell control wells and virus control wells in parallel with the experimental wells. After 7 days in culture, efficacy was evaluated by measuring the reverse transcriptase in the culture supernatants and the cells were stained with the tetrazolium dye XTT to evaluate cytotoxicity.

[4] = Maximum tolerated dose and dose range finding study in rats; assay type: in vivo
Method: The maximum tolerated dose in rats of the compound of formula (I) was determined to be greater than 2 g/day.

[5] = tested on: simian immunodeficiency virus (SIV); assay: Viral load by RT-PCR in SIV-infected rhesus macaques; assay type: in vivo
Method: (§2) Two SIV-infected rhesus macaques were treated with 300 mg/kg of the compound of formula (I) once daily via oral gavage. Viral load before treatment and after 6 months of treatment were measured by RT-PCR. Viral infectivity was determined by measuring the amount of p27 Gag (in pg/mL) in a viral infectivity assay wherein virus isolated from the animals was used to infect CEMx174 cells, followed by ELISA. Viral samples were diluted 1:1000 prior to assay. The CD4 count for each monkey was measured after 6 months.

[6] = Cytotoxicity in human PBMCs, XTT staining; assay type: cell-based; conditions: human, PHA-P stimulated PBMCs pooled from three donors; Incubation Time 0 hours; 7 days in culture; read-out: TC50
Method: as §1

PBMCs = assay: Cytotoxicity in human PBMCs, XTT staining; assay type: cell-based; conditions: 7 days in culture, read-out: TC50 (the source's name)
Method: as §1

[7] = tested on: simian immunodeficiency virus (SIV); assay: Viral infectivity assay: virus isolated from the animals used to infect CEMx174 cells, p27 Gag ELISA; assay type: in vivo, rhesus macaques
Method: as §2

[8] = CD4 count in SIV-infected rhesus macaques; assay type: in vivo
Method: as §2

SMILES | toxicity [1] | metabolism in blood [2] | AUC ([2]; cynomolgus monkey, blood) [ng·h/mL] | half-life ([2]; cynomolgus monkey, blood) [h] | pEC50 ([3]; Incubation Time 0 hours) | pEC50 ([3]; Incubation Time 2 hours) | pEC50 ([3]; Incubation Time 8 hours) | pEC50 ([3]; Incubation Time 24 hours) | adverse clinical outcomes in dose range finding study ([4]; 2 g/kg p.o., once per day for 14 days) | MTD at 14 days ([4]; rat, in vivo, oral, 2 g/kg) [mg/kg/day] | Treated Viral Load ([5]; 300 mg/kg once daily oral gavage, after 6 months of treatment, RT-PCR) | reduction in viral load ([5]; 300 mg/kg p.o. daily over 6 months, versus before treatment) | CC50 at 7 days [6] [µM] | CC50 (PBMCs; Incubation Time 2 hours) [µM] | CC50 (PBMCs; Incubation Time 8 hours) [µM] | CC50 (PBMCs; Incubation Time 24 hours) [µM] | Treated Viral Infectivity (p27 Gag) ([7]; 300 mg/kg once daily oral gavage, 6 months, viral samples diluted 1:1000, CEMx174 cells, ELISA) [pg/mL] | viral infectivity of SIV from treated animals compared with before treatment ([7]; 300 mg/kg p.o. daily over 6 months) | Treated CD4 Count ([8]; 300 mg/kg once daily oral gavage, after 6 months) | CD4 counts, assessment ([8]; after 6 months of 300 mg/kg p.o. daily)
CSc1ccccc1C(=O)NCCC(N)=O [Compound 3] | non-toxic | – | – | – | – | – | – | – | – | – | – | – | – | – | – | – | – | – | – | –
Cn1cnc([N+](=O)[O-])c1Sc1ccccc1C(=O)NCCC(N)=O [compound of formula (I), N-(3-amino-3-oxopropyl)-2-[(1-methyl-4-nitro-1H-imidazol-5-yl)thio]benzamide] | – | converted to two major metabolites | 5780 | 7.6 | 5.49 | 5.15 | 5.29 | 5.35 | did not show adverse clinical outcomes | > 2000 | 2.86 × 10^4 and 1.73 × 10^3 | approximately one | > 100 | > 100 | > 100 | > 100 | <0.1 | significantly decreased | 365 and 363 | deemed normal
